According to patent publication US20250152706A1, “COMPOSITIONS FOR ORAL DELIVERY OF BIOTHERAPEUTICS” (INTRACT PHARMA LIMITED, priority 2022, published 2025):
“Also recorded” adds a separate entry of the source. Like-named read-outs stand apart in the source and are kept apart here.

Legend:
[1] = Stability of infliximab in human colon fluid (human colon model), SE-HPLC; assay type: in vitro ADME; conditions: for effect of the excipient on infliximab stability, in words: human colon fluid, Examples 1 and 4
Protocol: A human colonic model based on a mixed faecal inoculum was used to mimic the luminal environment of the human large intestine. […] The basal media provides nutrients and growth factors to the microbiota allowing viability for up to 24 hours. The homogenized bacterial media was sieved through an open mesh fabric (SefarNitex™, pore size 350 μm) to remove any nonhomogeneous fibrous material. The pH was maintained at approximately 7.0 to mimic the colonic luminal pH of the human.
Stability of the drug/antibody infliximab in human colon fluid was measured with and without 5-ALA at varying concentrations. Each experiment was conducted in duplicate/triplicate.
Stability of the drug infliximab in human colon fluid was measured with and without 5-ALA and L-arginine at varying concentrations. Each experiment was conducted in duplicate/triplicate.
Stability of the drug infliximab in human colon fluid was measured with and without 5-ALA and aprotinin at varying pH. Each experiment was conducted in duplicate/triplicate.
Each experiment was conducted in duplicate/triplicate.

[2] = Ussing chamber penetration of infliximab into rat small intestine tissue, ELISA; conditions: 2 h, Examples 8-10
Protocol: (§1) The chambers are made of solid acrylic and supports the tissue membrane in such a way that each side of the membrane is isolated and faces a different chamber representing the luminal (apical) and blood (basal) compartments. The working system consists of a unit to fit a maximum of six vertical chambers, a gas manifold for carbogen purging (95% O2, 5% CO2) and a heater block to maintain the temperature of the chambers at 37° C. during the experiments with the use of a circulating water bath. The chambers are two-piece assemblies held together by a high spring-tension retaining ring to ensure leak-free operation during the experiments. […]
(§2) For the tissue penetration studies, the freshly excised small intestine (jejunum) and proximal colon tissue of healthy wistar rats was collected and transferred to an ice-cold solution of Krebs-Bicarbonate Ringer solution (KBr) of pH 7.4. […] The TEER was continuously monitored during the experiment to confirm the viability and integrity of the tissue. […]
(§3) Infliximab sample analysis (permeability studies) was performed using an indirect ELISA platform assay. […] The plate was read at a wavelength of 650 nm with the plate reader (Synergy LX Multimode Reader, Biotek).
(§4) Permeability of the drug infliximab across rat small intestine (jejunum) and colon tissue was measured with and without 5-ALA and the base, L-arginine. […]

[3] = Ussing chamber penetration of infliximab into rat colon tissue, ELISA; conditions: 2 h
Protocol: as §1, §2, §3, §4

[4] = Ussing chamber penetration of oxytocin into rat colon tissue, RP-HPLC; assay type: in vitro ADME; conditions: Example 12
Protocol: as §1, §2
(§5) Permeability of the drug oxytocin across rat small intestine (jejunum) and colon tissue was measured with and without 5-ALA. The peptide in the tissue at 2 h and was measured by RP-HPLC.

[5] = Stability of oxytocin in rat caecum slurry, RP-HPLC; conditions: for effect of the excipient on oxytocin stability, in words: rat caecum slurry, Examples 6 and 7; for remaining at 2 h, 1 mg/ml: Wistar, rat, pH 5.5, % Drug at T = 2 h, oxytocin 1 mg/ml, aprotinin 1 mg/ml in rat caecum slurry
Protocol: The rat caecum slurry was based on combination of cecum and proximal colon fluids collected from healthy wistar rats weighing 250 g. The fluids were collected immediately after sacrificing the rats and transferred to an anaerobic workstation (Electrotek 500TG™ workstation, Electrotek, West Yorkshire, UK) maintained at 37° C. and 70% relative air humidity. The fluids were diluted with freshly prepared basal medium to obtain a 50% w/w caecum fluid by homogenization. The homogenized mixture was sieved through an open mesh fabric. The pH of the fluid was measured as 5.5.
Peptide stock solution (oxytocin) were prepared in PBS at 2 mg/ml concentrations. Concentrations of 10 mg/ml and 40 mg/ml 5-ALA, 40 mg/ml methyl-ALA, 40 mg/ml hexyl-ALA and 2 mg/ml aprotinin were prepared. Stock solutions containing certain oxytocin combinations were added to 50% rat caecum slurry to obtain incubation concentrations (Examples 6 and 7) of 1 mg/ml peptide, 5 mg/ml or 20 mg/ml 5-ALA, 20 mg/ml methyl-ALA, 20 mg/ml hexyl-ALA, 1 mg/ml aprotinin, and 25% w/w rat caecum slurry. Samples were withdrawn at appropriate time points and added to 0.1N HCl solution in a ratio of 1:3. The samples were centrifuged at 9.6 g for 10 mins and the supernatant was analysed by reversed phase-HPLC (RP-HPLC).
A 150×4.6-mm Luna 5 μm C18 100 Å (Phenomenex, Torrance, CA) column was used using a gradient system as below:
Each sample's injection volume was 20 μl, the mobile phase flow rate was 1 ml/min and the peptide was detected at 214 nm. Each sample was run for 23 mins.
Stability of the drug oxytocin in rat caecum slurry was measured with and without 5-ALA and aprotinin, an enzyme inhibitor. Each experiment was conducted in duplicate/triplicate. The oxytocin remaining at different time points was measured by RP-HPLC.
Stability of the drug oxytocin in rat caecum slurry was measured with and without methyl-ALA, hexyl-ALA and aprotinin, an enzyme inhibitor. Each experiment was conducted in duplicate/triplicate. The oxytocin remaining at different time points was measured by RP-HPLC.

[6] = Protocol: Antibody stock solution (infliximab) was prepared in PBS at a 2 mg/ml concentration. 5-ALA was prepared at concentrations 10, 20 or 40 mg/ml. Methyl-ALA, hexyl-ALA, salcaprozate sodium, (SNAC) and sodium chenodeoxycholate were prepared at 20 mg/ml concentrations. The base L-arginine was prepared at 11, 22 or 44 mg/ml, and the stabiliser aprotinin was prepared at a 2 mg/ml concentration.
A 300×8.0-mm YMC-Pack Diol-200 S-5 μm, 20 nm (YMC Co Ltd, Kyoto, Japan) size exclusion (SE) chromatography column was used for sample separation using phosphate buffer saline (pH 7.3) prepared in sterile HPLC grade water as the mobile phase for elution, at a flow rate of 0.5 ml/min. The analysis was operated at room temperature and UV detection wavelength was set at 214 nm. Each sample was run for 40 minutes to allow complete elution of the sample proteins and reduce run-over.
Stability of the drug infliximab in rat caecum slurry was measured with and without SNAC, sodium chenodeoxycholate, hexyl-ALA and aprotinin. Each experiment was conducted in duplicate/triplicate. The antibody remaining at different time points was measured by SE-HPLC.

[7] = Ussing chamber penetration of oxytocin into rat small intestine tissue, RP-HPLC; conditions: 2 h, Examples 12-14
Protocol: as §1, §2, §5
Permeability of oxytocin across rat small intestine (jejunum) was measured with and without 5-ALA, methyl-ALA and hexyl-ALA. The peptide in the tissue at 2 h and was measured by RP-HPLC. […]

[8] = Example 1, infliximab 1 mg/ml in human colon fluid, 5-ALA.HCl 5 mg/ml (pH 5.5), 10 mg/ml (pH 4.9), 20 mg/ml (pH 4.1)
[9] = Example 2, infliximab 1 mg/ml in human colon fluid, 5-ALA phosphate + L-arginine 5 + 5.5 mg/ml (pH 6.4), 10 + 11 mg/ml (6.5), 20 + 22 mg/ml (pH 6.5), 5-ALA phosphate 20 mg/ml + NaOH (pH 6.4)
[10] = Example 4, infliximab 1 mg/ml, 5-ALA.HCl / methyl-ALA / hexyl-ALA 10 mg/ml, aprotinin 1 mg/ml in human colon fluid, pH 6.5

## NCC(=O)CCC(=O)O [Formulation 5-ALA, 5-aminolevulinic acid]
[1]
  effect of the excipient on infliximab stability, in words: provides antibody stability; also recorded: does not stabilize the antibody in a dose dependent manner
[2]
  effect of the excipient on infliximab permeation / tissue uptake, in words: did not lead to permeation or improved tissue uptake of infliximab
[3]; rat colon tissue, Example 8
  effect of the excipient on infliximab permeation / tissue uptake, in words: did not lead to permeation or improved tissue uptake of infliximab
[4]; rat colon tissue, 2 h
  effect of the excipient on oxytocin permeation / tissue level, in words: acts as a permeability enhancer and increases the amount of oxytocin
[5]
  effect of the excipient on oxytocin stability, in words: acts as a stabiliser and increases the amount of peptide present in the caecum slurry

## CC[C@H](C)[C@@H]1NC(=O)[C@H](Cc2ccc(O)cc2)NC(=O)[C@@H](N)CSSC[C@@H](C(=O)N2CCC[C@H]2C(=O)N[C@@H](CC(C)C)C(=O)NCC(N)=O)NC(=O)[C@H](CC(N)=O)NC(=O)[C@H](CCC(N)=O)NC1=O [Oxytocin]
[4]; oxytocin 1 mg/ml, 5-ALA.HCl 20 mg/ml
  % Drug in colon tissue at 2 h: 0.0 ± 0.0%
[5]; Example 6, 5-ALA.HCl 20 mg/ml
  remaining at 2 h, 1 mg/ml: 10.9 ± 3.4%
[5]; Example 7, methyl-ALA / hexyl-ALA 20 mg/ml
  remaining at 2 h, 1 mg/ml: 5 ± 2%

## O=C([O-])CCCCCCCNC(=O)c1ccccc1O.[Na+] [SNAC, salcaprozate sodium]
[6]
  effect of the excipient on infliximab stability, in words: provide no stabilisation

## CCCCCCOC(=O)CCC(=O)CN [hexyl-ALA, hexyl aminolevulinic acid]
[1]
  effect of the excipient on infliximab stability, in words: greater antibody stabilisation
[6]
  effect of the excipient on infliximab stability, in words: provide good antibody stability
[5]
  effect of the excipient on oxytocin stability, in words: provide some peptide stabilisation

## COC(=O)CCC(=O)CN [methyl-ALA, methyl aminolevulinic acid]
[1]
  effect of the excipient on infliximab stability, in words: greater antibody stabilisation

## CCCCCCCCCC(=O)[O-].[Na+] [sodium caprate]
[3]; rat colon tissue pre-treated with NAC, Example 11
  effect of the excipient on infliximab tissue level, in words: may have led to increased tissue levels of antibody
[7]
  effect of the excipient on oxytocin permeation / tissue level, in words: greatest increase in oxytocin tissue levels

## C[C@H](CCC(=O)[O-])[C@H]1CC[C@H]2[C@@H]3[C@H](O)C[C@@H]4C[C@H](O)CC[C@]4(C)[C@H]3CC[C@]12C.[Na+] [sodium chenodeoxycholate]
[6]
  effect of the excipient on infliximab stability, in words: provide no stabilisation

## Infliximab: monoclonal antibody; existing commercial IBD therapeutic antibody, tested alone as control
[1]; [8]
  % Drug at T = 2 h: 21.5 ± 0.0%
  % Drug at T = 4 h: 7.8 ± 0.0%
[1]; [9]
  % Drug at T = 2 h: 16.5 ± 0.4%
  % Drug at T = 4 h: 6.5 ± 0.3%
[1]; [10]
  % Drug at T = 2 h: 37.6 ± 3.5%
  % Drug at T = 4 h: 16.1 ± 0.6%

## aprotinin
[6]
  effect of the excipient on infliximab stability, in words: provides an antibody stabilisation effect
